biological target: T1, His-hMAGL (recombinant polyhistidine tagged human MAGL protein) (Homo sapiens, UniProt Q99685); assay: Measurement of MAGL inhibitory activity (RapidFire-mass spectrometry of arachidonic acid produced from 2-arachidonylglycerol); type: biochemical; details: test compound 10 μM; His-hMAGL; substrate 2-arachidonylglycerol; 60 min preincubation
T1 construct: polyhistidine (His) (N); made in house; host or cells: E. coli BL21(DE3)
T1 sequence (Q99685 1-303): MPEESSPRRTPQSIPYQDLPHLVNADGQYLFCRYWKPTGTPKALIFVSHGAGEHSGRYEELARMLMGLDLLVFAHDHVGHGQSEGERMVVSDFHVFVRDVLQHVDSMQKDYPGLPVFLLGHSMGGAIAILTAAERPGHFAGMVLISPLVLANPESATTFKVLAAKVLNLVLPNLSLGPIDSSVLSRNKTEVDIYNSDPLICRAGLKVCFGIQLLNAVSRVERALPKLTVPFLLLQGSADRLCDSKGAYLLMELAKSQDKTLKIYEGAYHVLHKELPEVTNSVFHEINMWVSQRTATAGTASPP
Experimental: Furthermore, acetonitrile (50 μL) containing 3 μM arachidonic acid-d8 (Cayman Chemical Company) was added and the mixture was stirred.
The amount of arachidonic acid in the obtained enzyme reaction mixture was calculated by measuring by RapidFire-mass spectrometry and correcting by the amount of arachidonic acid-d8. High Throughput online solid phase extraction was performed using RapidFire 300™ system (Agilent Technologies, Inc.). Samples were loaded on SPE C4 cartridge (Agilent Technologies, Inc.) and desalted with 0.2 (v/v) % acetic acid (Wako Pure Chemical Industries, Ltd.) in ultrapure water/acetonitrile (70/30, v/v) at a flow rate of 1.5 mL/min, eluted at a flow rate of 0.5 mL/min with 0.2(v/v) % acetic acid dissolved in acetonitrile/ultrapure water (90/10, v/v), and injected into the mass spectrometry part. The injection needle was washed with ultrapure water (500 millisecond) and acetonitrile (500 millisecond) to minimize carry-over. […] The RapidFire300 system was controlled by RapidFire UI software version 3.6 (Agilent Technologies, Inc.).
The mass spectrometry of the resultant product was performed using API4000™ triple quadrupole mass spectrometer (AB SCIEX) equipped with an electrospray ion source (TurboIon Spray™) in a negative selected reaction monitoring (SRM) mode. The conditions of SRM are shown below. The parameters of the instrument were optimized as follows: capillary temperature 600° C., ion spray voltage −4.5 kV, collision gas 8, curtain gas 15 psi, ion source gas 1 60 psi, ion source gas 2 60 psi. The mass spectrometer was controlled by Analyst™ software version 1.5.1 (AB SCIEX). The peak area integration was analyzed using RapidFire integrator software version 3.6 (Agilent Technologies, Inc.).
MAGL inhibitory rate (%) was calculated according to the following calculation formula. (1-(arachidonic acid production amount of test compound addition group−arachidonic acid production amount of enzyme-free group)÷(arachidonic acid production amount of test compound-free group−arachidonic acid production amount of enzyme-free group))×100

% inhibition (10 μM) | Compound
100% | CC(Oc1ccc(C(F)(F)F)cc1F)C1CN(C(=O)[C@H]2C[C@]3(COC(=O)N3)C2)C1 (stereo partly shown) [Example 14, (2s,4s)-2-((3-(1-(2-fluoro-4-(trifluoromethyl)phenoxy)ethyl)azetidin-1-yl)carbonyl)-7-oxa-5-azaspiro[3.4]octan-6-one]
100% | CC(Oc1c(F)cc(F)cc1F)C1CCN(C(=O)[C@H]2C[C@]3(COC(=O)N3)C2)CC1 (stereo partly shown) [Example 87, (2s,4s)-2-((4-(1-(2,4,6-trifluorophenoxy)ethyl)piperidin-1-yl)carbonyl)-7-oxa-5-azaspiro[3.4]octan-6-one]
100% | CC(Oc1ccc(F)cc1C(F)(F)F)C1CCN(C(=O)[C@H]2C[C@]3(COC(=O)N3)C2)CC1 (stereo partly shown) [Example 66, (2s,4s)-2-((4-(1-(4-fluoro-2-(trifluoromethyl)phenoxy)ethyl)piperidin-1-yl)carbonyl)-7-oxa-5-azaspiro[3.4]octan-6-one]

same assay, conditions: test compound 10 μM; His-hMAGL; substrate 2-arachidonylglycerol; 60 min preincubation; 10 µM

% inhibition (10 μM) | Compound
100% | CC(Oc1c(F)ccc(F)c1F)C1CCN(C(=O)[C@H]2C[C@]3(COC(=O)N3)C2)CC1 (stereo partly shown) [Example 57, (2s,4s)-2-((4-(1-(2,3,6-trifluorophenoxy)ethyl)piperidin-1-yl)carbonyl)-7-oxa-5-azaspiro[3.4]octan-6-one]
100% | CC(Oc1ccc(F)c(F)c1F)C1CCN(C(=O)[C@H]2C[C@]3(COC(=O)N3)C2)CC1 (stereo partly shown) [Example 82, (2s,4s)-2-((4-(1-(2,3,4-trifluorophenoxy)ethyl)piperidin-1-yl)carbonyl)-7-oxa-5-azaspiro[3.4]octan-6-one]
101% | CC(Oc1ccc(F)cc1F)C1CCN(C(=O)[C@H]2C[C@]3(COC(=O)N3)C2)CC1 (stereo partly shown) [Example 22, (2s,4s)-2-((4-(1-(2,4-difluorophenoxy)ethyl)piperidin-1-yl)carbonyl)-7-oxa-5-azaspiro[3.4]octan-6-one]
100% | CC(Oc1c(F)ccc(F)c1F)C1CCN(C(=O)[C@H]2C[C@]3(COC(=O)N3)C2)CC1 (stereo partly shown) [Example 56, (2s,4s)-2-((4-(1-(2,3,6-trifluorophenoxy)ethyl)piperidin-1-yl)carbonyl)-7-oxa-5-azaspiro[3.4]octan-6-one]
101% | CC1(C2CCN(C(=O)[C@H]3C[C@]4(COC(=O)N4)C3)CC2)Cc2ccc(C(F)(F)F)cc2O1 (stereo partly shown) [Example 70, (2s,4s)-2-((4-(2-methyl-6-(trifluoromethyl)-2,3-dihydro-1-benzofuran-2-yl)piperidin-1-yl)carbonyl)-7-oxa-5-azaspiro[3.4]octan-6-one]

same assay, conditions: test compound 10 μM; His-hMAGL; substrate 2-arachidonylglycerol; 60 min preincubation; read-out: % inhibition (10 μM)

inhibition at 10 µM | Compound
100% | O=C1N[C@]2(CO1)C[C@H](C(=O)N1CCC(COc3ccc(F)cc3Cl)(C(F)(F)F)CC1)C2 [Example 48, (2s,4s)-2-((4-((2-chloro-4-fluorophenoxy)methyl)-4-(trifluoromethyl)piperidin-1-yl)carbonyl)-7-oxa-5-azaspiro[3.4]octan-6-one]
101% | O=C1N[C@]2(CO1)C[C@H](C(=O)N1CCC(COc3ccc(CCF)cc3F)CC1)C2 [Example 64, (2s,4s)-2-((4-((2-fluoro-4-(2-fluoroethyl)phenoxy)methyl)piperidin-1-yl)carbonyl)-7-oxa-5-azaspiro[3.4]octan-6-one]
100% | O=C1N[C@]2(CO1)C[C@H](C(=O)N1CC(CC(F)(F)c3ccc(C(F)(F)F)c(F)c3)C1)C2 [Example 99, (2s,4s)-2-((3-(2,2-difluoro-2-(3-fluoro-4-(trifluoromethyl)phenyl)ethyl)azetidin-1-yl)carbonyl)-7-oxa-5-azaspiro[3.4]octan-6-one]
100% | CC(Oc1c(F)cc(F)cc1F)C1CCN(C(=O)[C@H]2C[C@]3(COC(=O)N3)C2)CC1 (stereo partly shown) [Example 85, (2s,4s)-2-((4-(1-(2,4,6-trifluorophenoxy)ethyl)piperidin-1-yl)carbonyl)-7-oxa-5-azaspiro[3.4]octan-6-one]
101% | O=C1N[C@]2(CO1)C[C@H](C(=O)N1CCC(COc3ccc(N4CC(F)C4)cc3Cl)CC1)C2 [Example 49, (2s,4s)-2-((4-((2-chroro-4-(3-fluoroazetidin-1-yl)phenoxy)methyl)piperidin-1-yl)carbonyl)-7-oxa-5-azaspiro[3.4]octan-6-one]
100% | O=C1N[C@]2(CO1)C[C@H](C(=O)N1CC(OCc3ccc(C(F)(F)F)c(Cl)c3F)C1)C2 [Example 102, (2s,4s)-2-((3-((3-chloro-2-fluoro-4-(trifluoromethyl)benzyl)oxy)azetidin-1-yl)carbonyl)-7-oxa-5-azaspiro[3.4]octan-6-one]
100% | CC1(C2CCN(C(=O)[C@H]3C[C@]4(COC(=O)N4)C3)CC2)Cc2ccc(C(F)(F)F)cc2O1 (stereo partly shown) [Example 63, (2s,4s)-2-((4-(2-methyl-6-(trifluoromethyl)-2,3-dihydro-1-benzofuran-2-yl)piperidin-1-yl)carbonyl)-7-oxa-5-azaspiro[3.4]octan-6-one]
100% | O=C1N[C@]2(CO1)C[C@H](C(=O)N1CC(OCc3cc(Cl)c(F)c(Cl)c3)C1)C2 [Example 106, (2s,4s)-2-((3-((3,5-dichloro-4-fluorobenzyl)oxy)azetidin-1-yl)carbonyl)-7-oxa-5-azaspiro[3.4]octan-6-one]
100% | O=C1N[C@]2(CO1)C[C@H](C(=O)N1CC(COc3ccc(C(F)(F)F)cc3Cl)C1)C2 [Example 76, (2s,4s)-2-((3-((2-chloro-4-(trifluoromethyl)phenoxy)methyl)azetidin-1-yl)carbonyl)-7-oxa-5-azaspiro[3.4]octan-6-one]
100% | Cc1ccc(COC2CN(C(=O)[C@H]3C[C@]4(COC(=O)N4)C3)C2)c(F)c1F [Example 94, (2s,4s)-2-((3-((2,3-difluoro-4-methylbenzyl)oxy)azetidin-1-yl)carbonyl)-7-oxa-5-azaspiro[3.4]octan-6-one]
99% | Cc1ccc(C(F)(F)CC2CN(C(=O)[C@H]3C[C@]4(COC(=O)N4)C3)C2)cc1Cl [Example 109, (2s,4s)-2-((3-(2-(3-chloro-4-methylphenyl)-2,2-difluoroethyl)azetidin-1-yl)carbonyl)-7-oxa-5-azaspiro[3.4]octan-6-one]
100% | O=C1N[C@]2(CO1)C[C@H](C(=O)N1CC(CC(F)(F)c3ccc(Cl)c(C(F)(F)F)c3)C1)C2 [Example 118, (2s,4s)-2-((3-(2-(4-chloro-3-(trifluoromethyl)phenyl)-2,2-difluoroethyl)azetidin-1-yl)carbonyl)-7-oxa-5-azaspiro[3.4]octan-6-one]
100% | N#Cc1cc(C(F)(F)F)ccc1OCC1CCN(C(=O)[C@H]2C[C@]3(COC(=O)N3)C2)CC1 [Example 128, 2-((1-(((2s,4s)-6-oxo-7-oxa-5-azaspiro[3.4]oct-2-yl)carbonyl)piperidin-4-yl)methoxy)-5-(trifluoromethyl)benzonitrile]
100% | CC(Oc1ccc(C2CC2)cc1F)C1CCN(C(=O)[C@H]2C[C@]3(COC(=O)N3)C2)CC1 (stereo partly shown) [Example 47, (2s,4s)-2-((4-(1-(4-cychopropyl-2-fluorophenoxy)ethyl)piperidin-1-yl)carbonyl)-7-oxa-5-azaspiro[3.4]octan-6-one]
101% | O=C1N[C@]2(CO1)C[C@H](C(=O)N1CC(COc3cc(C4CC4)c(C(F)(F)F)cc3F)C1)C2 [Example 65, (2s,4s)-2-((3-((5-cyclopropyl-2-fluoro-4-(trifluoromethyl)phenoxy)methyl)azetidin-1-yl)carbonyl)-7-oxa-5-azaspiro[3.4]octan-6-one]
100% | O=C1N[C@]2(CO1)C[C@H](C(=O)N1CC(OCc3cc(C(F)(F)F)cc(C(F)(F)F)c3)C1)C2 [Example 113, (2s,4s)-2-((3-((3,5-bis(trifluoromethyl)benzyl)oxy)azetidin-1-yl)carbonyl)-7-oxa-5-azaspiro[3.4]octan-6-one]
100% | O=C1N[C@]2(CO1)C[C@H](C(=O)N1CCC3(CC1)CC(Oc1ccc(F)cc1Cl)C3)C2 [Example 62, (2s,4s)-2-((2-(2-chloro-4-fluorophenoxy)-7-azaspiro[3.5]non-7-yl)carbonyl)-7-oxa-5-azaspiro[3.4]octan-6-one]
